Assay results taken from US20230278972A1, “SUBSTITUTED HALOALKYL SULFONANILIDE HERBICIDES” (FMC Corporation, priority 2020, published 2023).

What was measured:
Type in all cases: in vivo
[1] = system: ragweed (common ragweed, Ambrosia artemisiifolia); experiment: Test A preemergence, ragweed; details: Preemergence; for Ragweed plant response rating: 125 g ai/ha, visual injury on 0 to 100 scale (0 no effect, 100 complete control), approximately 10 days; for Plant response rating, Ragweed: 500 g ai/ha, 0 to 100 scale (0 no effect, 100 complete control)
In short: (§1)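 Seeds are sown in loam mixed with sand and sprayed on the soil surface right after planting for the preemergence test. Postemergence pots are sprayed once seedlings reach 2 to 10 cm at the one- to two-leaf stage. The same surfactant-containing, non-phytotoxic solvent formulation serves both.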

[2] = system: blackgrass (Alopecurus myosuroides); experiment: Test A postemergence, blackgrass; details: Postemergence, 0 to 100 scale (0 no effect, 100 complete control); for Plant response rating, Blackgrass: 125 g ai/ha, visual injury approx. 10 days; for Blackgrass plant response rating: 500 g ai/ha, visual injury vs untreated controls after approx. 10 days
In short: as §1

[3] = system: Ryegrass, Italian (Italian ryegrass, Lolium multiflorum); experiment: Test A postemergence, Ryegrass, Italian; details: Postemergence, 0 to 100 scale (0 no effect, 100 complete control); for Plant response rating, Ryegrass, Italian: 125 g ai/ha; for Ryegrass, Italian plant response rating: 500 g ai/ha, visual injury vs untreated controls after approx. 10 days
In short: as §1

[4] = system: ragweed (common ragweed, Ambrosia artemisiifolia); experiment: Test A postemergence, ragweed; details: Postemergence, 0 to 100 scale (0 no effect, 100 complete control); for Plant response rating, Ragweed: 125 g ai/ha; for Ragweed plant response rating: 500 g ai/ha, visual injury vs untreated controls after approx. 10 days
In short: as §1

[5] = system: pigweed (Amaranthus retroflexus); experiment: Test A preemergence, pigweed; details: for Pigweed plant response rating: 125 g ai/ha, visual injury on 0 to 100 scale (0 no effect, 100 complete control), approximately 10 days; for Plant response rating, Pigweed: 500 g ai/ha, 0 to 100 scale (0 no effect, 100 complete control)
In short: (§2)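 Test chemicals, formulated in a non-phytotoxic solvent mixture with surfactant, were sprayed postemergence on plants 2 to 10 cm tall at the one- to two-leaf stage. Preemergence treatment was a directed soil spray onto freshly seeded pots. Both used a loam soil and sand blend.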

[6] = system: kochia (Bassia scoparia); experiment: Test A postemergence, kochia; details: Postemergence, 0 to 100 scale (0 no effect, 100 complete control); for Plant response rating, Kochia: 125 g ai/ha, visual injury approx. 10 days; for Kochia plant response rating: 500 g ai/ha, visual injury vs untreated controls after approx. 10 days
In short: as §1

[7] = system: corn (Zea mays); experiment: Test A postemergence, corn; details: Postemergence, 0 to 100 scale (0 no effect, 100 complete control); for Plant response rating, Corn: 125 g ai/ha, visual injury approx. 10 days; for Corn plant response rating: 500 g ai/ha, visual injury vs untreated controls after approx. 10 days
In short: as §1

[8] = system: pigweed (Amaranthus retroflexus); experiment: Test A postemergence, pigweed; details: Postemergence, 0 to 100 scale (0 no effect, 100 complete control); for Plant response rating, Pigweed: 125 g ai/ha; for Pigweed plant response rating: 500 g ai/ha, visual injury vs untreated controls after approx. 10 days
In short: as §1

[9] = system: wheat (Triticum aestivum); experiment: Test A postemergence, wheat; details: Postemergence, 0 to 100 scale (0 no effect, 100 complete control); for Plant response rating, Wheat: 125 g ai/ha; for Wheat plant response rating: 500 g ai/ha, visual injury vs untreated controls after approx. 10 days
In short: as §2

[10] = system: Foxtail, Giant (giant foxtail, Setaria faberi); experiment: Test A postemergence, Foxtail, Giant; details: Postemergence, 0 to 100 scale (0 no effect, 100 complete control); for Plant response rating, Foxtail, Giant: 125 g ai/ha, visual injury approx. 10 days; for Foxtail, Giant plant response rating: 500 g ai/ha, visual injury vs untreated controls after approx. 10 days
In short: as §1

[11] = system: barnyardgrass (Echinochloa crus-galli); experiment: Test A preemergence, barnyardgrass; details: Preemergence; for Barnyardgrass plant response rating: 125 g ai/ha, visual injury on 0 to 100 scale (0 no effect, 100 complete control), approximately 10 days; for Plant response rating, Barnyardgrass: 500 g ai/ha, 0 to 100 scale (0 no effect, 100 complete control)
In short: as §1

[12] = system: Ryegrass, Italian (Italian ryegrass, Lolium multiflorum); experiment: Test A preemergence, Ryegrass, Italian; details: Preemergence; for Ryegrass, Italian plant response rating: 125 g ai/ha, visual injury on 0 to 100 scale (0 no effect, 100 complete control), approximately 10 days; for Plant response rating, Ryegrass, Italian: 500 g ai/ha, 0 to 100 scale (0 no effect, 100 complete control)
In short: as §1

[13] = system: Foxtail, Giant (giant foxtail, Setaria faberi); experiment: Test A preemergence, Foxtail, Giant; details: Preemergence; for Foxtail, Giant plant response rating: 125 g ai/ha, visual injury on 0 to 100 scale (0 no effect, 100 complete control), approximately 10 days; for Plant response rating, Foxtail, Giant: 500 g ai/ha, 0 to 100 scale (0 no effect, 100 complete control)
In short: as §1

[14] = system: barnyardgrass (Echinochloa crus-galli); experiment: Test A postemergence, barnyardgrass; details: Postemergence, 0 to 100 scale (0 no effect, 100 complete control); for Plant response rating, Barnyardgrass: 125 g ai/ha, visual injury approx. 10 days; for Barnyardgrass plant response rating: 500 g ai/ha, visual injury vs untreated controls after approx. 10 days
In short: as §2

[15] = system: galium (catchweed bedstraw, Galium aparine); experiment: Test A postemergence, galium; details: Postemergence, 0 to 100 scale (0 no effect, 100 complete control); for Plant response rating, Galium: 125 g ai/ha, visual injury approx. 10 days; for Galium plant response rating: 500 g ai/ha, visual injury vs untreated controls after approx. 10 days
In short: as §2

[16] = system: kochia (Bassia scoparia); experiment: Test A preemergence, kochia; details: Preemergence; for Kochia plant response rating: 125 g ai/ha, visual injury on 0 to 100 scale (0 no effect, 100 complete control), approximately 10 days; for Plant response rating, Kochia: 500 g ai/ha, 0 to 100 scale (0 no effect, 100 complete control)
In short: as §1

Compound | Ragweed plant response rating [1] | Plant response rating, Ragweed [1] | Plant response rating, Blackgrass [2] | Blackgrass plant response rating [2] | Plant response rating, Ryegrass, Italian [3] | Ryegrass, Italian plant response rating [3] | Plant response rating, Ragweed [4] | Ragweed plant response rating [4] | Pigweed plant response rating [5] | Plant response rating, Pigweed [5] | Plant response rating, Kochia [6] | Kochia plant response rating [6] | Plant response rating, Corn [7] | Corn plant response rating [7] | Plant response rating, Pigweed [8] | Pigweed plant response rating [8] | Plant response rating, Wheat [9] | Wheat plant response rating [9] | Plant response rating, Foxtail, Giant [10] | Foxtail, Giant plant response rating [10] | also measured
Cc1cc(C(F)(F)F)c(NS(=O)(=O)C(F)(F)F)cc1C(=O)N(C)C [Compound 132] | 80 | 90 | 0 | 0 | 0 | 40 | 60 | 90 | 100 | 100 | 20 | 20 | 0 | 20 | 70 | 90 | 40 | 0 | 20 | 40 | Barnyardgrass plant response rating [11]: 60; Plant response rating, Barnyardgrass [11]: 100; Ryegrass, Italian plant response rating [12]: 80; Plant response rating, Ryegrass, Italian [12]: 100; Foxtail, Giant plant response rating [13]: 30; Plant response rating, Foxtail, Giant [13]: 90; Plant response rating, Barnyardgrass [14]: 0; Barnyardgrass plant response rating [14]: 40; Plant response rating, Galium [15]: 70; Galium plant response rating [15]: 90; Kochia plant response rating [16]: 0; Plant response rating, Kochia [16]: 70
Cc1cc(C(F)(F)F)c(C(=O)N(C)C)cc1NS(=O)(=O)C(F)(F)F [Compound 133] | 20 | 90 | 0 | 0 | 30 | 40 | 90 | 80 | 30 | 90 | 20 | 20 | 10 | 10 | 60 | 90 | 0 | 50 | 0 | 10 | Barnyardgrass plant response rating [11]: 30; Plant response rating, Barnyardgrass [11]: 90; Ryegrass, Italian plant response rating [12]: 20; Plant response rating, Ryegrass, Italian [12]: 90; Foxtail, Giant plant response rating [13]: 10; Plant response rating, Foxtail, Giant [13]: 90; Plant response rating, Barnyardgrass [14]: 0; Barnyardgrass plant response rating [14]: 10; Plant response rating, Galium [15]: 80; Galium plant response rating [15]: 90; Kochia plant response rating [16]: 0; Plant response rating, Kochia [16]: 0
Cc1cc(C#N)c(C(=O)N(C)C)cc1NS(=O)(=O)C(F)(F)F [Compound 134] | 10 | 30 | 0 | 0 | 0 | 0 | 70 | 40 | 80 | 90 | 40 | 70 | 0 | 0 | 50 | 90 | 0 | 0 | 0 | 10 | Barnyardgrass plant response rating [11]: 0; Plant response rating, Barnyardgrass [11]: 40; Ryegrass, Italian plant response rating [12]: 20; Plant response rating, Ryegrass, Italian [12]: 90; Foxtail, Giant plant response rating [13]: 40; Plant response rating, Foxtail, Giant [13]: 100; Plant response rating, Barnyardgrass [14]: 0; Barnyardgrass plant response rating [14]: 10; Plant response rating, Galium [15]: 50; Galium plant response rating [15]: 80; Kochia plant response rating [16]: 0; Plant response rating, Kochia [16]: 0
Cc1cc(C)c(C2=NOC3(CCC4(CC3)OCCO4)C2)cc1NS(=O)(=O)C(F)(F)F [Compound 135] | 10 | 80 | 20 | 60 | 0 | 80 | 20 | 80 | 60 | 100 | 50 | 70 | 0 | 80 | 80 | 70 | 0 | 70 | 90 | 90 | Barnyardgrass plant response rating [11]: 100; Plant response rating, Barnyardgrass [11]: 100; Ryegrass, Italian plant response rating [12]: 100; Plant response rating, Ryegrass, Italian [12]: 100; Foxtail, Giant plant response rating [13]: 100; Plant response rating, Foxtail, Giant [13]: 100; Plant response rating, Barnyardgrass [14]: 80; Barnyardgrass plant response rating [14]: 90; Plant response rating, Galium [15]: 90; Galium plant response rating [15]: 90; Kochia plant response rating [16]: 80; Plant response rating, Kochia [16]: 100
Cc1cc(C)c(N(S(=O)(=O)C(F)(F)F)S(=O)(=O)C(F)(F)F)cc1C1=NOC2(CCC3(CC2)OCCO3)C1 [Compound 136] | 50 | 80 | 10 | 20 | 80 | 0 | 60 | 50 | 20 | 70 | 30 | 40 | 0 | 30 | 40 | 90 | 70 | 60 | 0 | 50 | Barnyardgrass plant response rating [11]: 90; Plant response rating, Barnyardgrass [11]: 100; Ryegrass, Italian plant response rating [12]: 90; Plant response rating, Ryegrass, Italian [12]: 100; Foxtail, Giant plant response rating [13]: 100; Plant response rating, Foxtail, Giant [13]: 100; Plant response rating, Barnyardgrass [14]: 20; Barnyardgrass plant response rating [14]: 80; Plant response rating, Galium [15]: 70; Galium plant response rating [15]: 90; Kochia plant response rating [16]: 80; Plant response rating, Kochia [16]: 90
